Measurements from patent publication US12601740B2 (priority 2021, dated 2026).
≈ marks a conversion by molar mass, not a printed value.

How the values were obtained:
[1] = test system: E. coli BAA 2523; test: MIC by phage T7 amplification ELISA, serial microdilution in urine; settings: Escherichia coli, BAA2523, 2 h
[2] = test system: E. coli BAA 2471; test: as above; settings: Escherichia coli, BAA2471, 2 h
[3] = test system: E. coli BAA 2452; test: as above; settings: Escherichia coli, BAA2452, 2 h
[4] = test system: E. coli BAA 196; test: as above; settings: Escherichia coli, BAA196, 2 h
[5] = test system: E. coli O157:H7; test: microbe, parasite or virus in culture; format: cell-based; settings: Escherichia coli; E. coli strain O157:H7 in urine, ~1×10^6 cfu/mL, phage T7 amplification 2 hours at 37° C.
[6] = test system: E. coli BAA 2340; test: MIC by phage T7 amplification ELISA, serial microdilution in urine; settings: Escherichia coli, BAA2340, 2 h
[7] = test system: E. coli BAA 197; test: as above; settings: Escherichia coli, BAA197, 2 h
[8] = test system: E. coli 15597; test: as above; settings: Escherichia coli, 15597, 2 h
[9] = test system: E. coli BAA 198; test: as above; settings: Escherichia coli, BAA198, 2 h

| Structure (SMILES) | MIC [1] | MIC [2] | MIC [3] | MIC [4] | MIC [5] | MIC [6] | MIC [7] | MIC [8] | MIC [9] |
| --- | --- | --- | --- | --- | --- | --- | --- | --- | --- |
| CO/N=C(\C(=O)N[C@@H]1C(=O)N2C(C(=O)[O-])=C(C[N+]3(C)CCCC3)CS[C@H]12)c1csc(N)n1 [Cefepime] | 16 µg/mL (≈ 33.3 µM) | > 256 µg/mL | 68 µg/mL (≈ 141 µM) | 64 µg/mL (≈ 133 µM) | 8 µg/mL (≈ 16.6 µM) | 68 µg/mL (≈ 141 µM) | > 64 µg/mL | 8 µg/mL (≈ 16.6 µM) | 64 µg/mL (≈ 133 µM) |
| CC(C)(O/N=C(\C(=O)N[C@@H]1C(=O)N2C(C(=O)[O-])=C(C[n+]3ccccc3)CS[C@H]12)c1csc(N)n1)C(=O)O [Ceftazidime] | > 256 µg/mL | > 256 µg/mL | 16 µg/mL (≈ 29.3 µM) | > 64 µg/mL | 256 µg/mL (≈ 468 µM) | > 64 µg/mL | > 64 µg/mL | 0.5 µg/mL (≈ 0.915 µM) | > 64 µg/mL |
| CO/N=C(\C(=O)N[C@@H]1C(=O)N2C(C(=O)O)=C(CSc3nc(=O)c(=O)[nH]n3C)CS[C@H]12)c1csc(N)n1 [Ceftriaxone] | 256 µg/mL (≈ 462 µM) | > 256 µg/mL | 68 µg/mL (≈ 123 µM) | > 64 µg/mL | 64 µg/mL (≈ 115 µM) | > 64 µg/mL | > 64 µg/mL | 8 µg/mL (≈ 14.4 µM) | > 64 µg/mL |
| C[C@@H](O)[C@H]1C(=O)N2C(C(=O)O)=C(S[C@@H]3CN[C@H](CNS(N)(=O)=O)C3)[C@H](C)[C@H]12 [Doripenem] | 0.5 µg/mL (≈ 1.19 µM) | 256 µg/mL (≈ 609 µM) | 16 µg/mL (≈ 38 µM) | 16 µg/mL (≈ 38 µM) | 0.25 µg/mL (≈ 0.595 µM) | 16 µg/mL (≈ 38 µM) | 32 µg/mL (≈ 76.1 µM) | > 64 µg/mL | 32 µg/mL (≈ 76.1 µM) |
| C[C@@H](O)[C@H]1C(=O)N2C(C(=O)O)=C(S[C@@H]3CN[C@H](C(=O)Nc4cccc(C(=O)O)c4)C3)[C@H](C)[C@H]12 [Ertapenem] | 8 µg/mL (≈ 16.8 µM) | > 256 µg/mL | 16 µg/mL (≈ 33.6 µM) | 64 µg/mL (≈ 135 µM) | 2 µg/mL (≈ 4.21 µM) | 68 µg/mL (≈ 143 µM) | > 64 µg/mL | 0.5 µg/mL (≈ 1.05 µM) | 64 µg/mL (≈ 135 µM) |
| C[C@@H](O)[C@H]1C(=O)N2C(C(=O)O)=C(SCCN=CN)C[C@H]12 [Imipenem] | 64 µg/mL (≈ 214 µM) | 32 µg/mL (≈ 107 µM) | 256 µg/mL (≈ 855 µM) | 16 µg/mL (≈ 53.4 µM) | 64 µg/mL (≈ 214 µM) | > 64 µg/mL | 32 µg/mL (≈ 107 µM) | 4 µg/mL (≈ 13.4 µM) | 64 µg/mL (≈ 214 µM) |
| C[C@@H](O)[C@H]1C(=O)N2C(C(=O)O)=C(S[C@@H]3CN[C@H](C(=O)N(C)C)C3)[C@H](C)[C@H]12 [Meropenem] | 1 µg/mL (≈ 2.61 µM) | 16 µg/mL (≈ 41.7 µM) | 16 µg/mL (≈ 41.7 µM) | 16 µg/mL (≈ 41.7 µM) | 0.25 µg/mL (≈ 0.652 µM) | 16 µg/mL (≈ 41.7 µM) | 64 µg/mL (≈ 167 µM) | > 64 µg/mL | 16 µg/mL (≈ 41.7 µM) |
| Cc1onc(-c2ccccc2)c1C(=O)N[C@@H]1C(=O)N2[C@@H]1SC(C)(C)[C@@H]2C(=O)O [Oxacillin] | 256 µg/mL (≈ 638 µM) | > 256 µg/mL | 64 µg/mL (≈ 159 µM) | > 64 µg/mL | > 256 µg/mL | > 64 µg/mL | > 64 µg/mL | 64 µg/mL (≈ 159 µM) | > 64 µg/mL |
